Reference: PubChem BioAssay AID1918996 (Molecular Pharmacology Branch, DTP, NCI, 2023)
Values joined by “and” are separate entries in the source; they are usually repeats but may differ in a detail not shown here. Equal values may be shown once.

System: 349418-098-R-PDC complex spheroid growth
Test: Anticancer human tumor 349418-098-R-PDC patient-derived lung adenocarcinoma cell line growth inhibition [AhR]
Settings: for viability, T/C: stronger effect = lower value
How it was run: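 Complex tumor spheroids co-cultured with HUVEC and human MSC stroma; AhR antagonists tested in combination with standard-of-care and investigational agents. Top concentration at or near clinical Cmax (else 10 microM), half-log dilutions; growth expressed as percent test/control.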

[1] = curve of first compound, second compound 0.1 µM
[2] = curve of first compound, second compound 0.316 µM
[3] = curve of first compound, second compound 1 µM
[4] = curve of first compound, second compound 3.16 µM
[5] = curve of first compound, second compound 10 µM
[6] = second compound 0.1 µM, first compound 0.0316 µM
[7] = second compound 0.1 µM, first compound 0.1 µM
[8] = second compound 0.1 µM, first compound 0.316 µM
[9] = second compound 0.1 µM, first compound 1 µM
[10] = second compound 0.1 µM, first compound 3.16 µM
[11] = second compound 0.1 µM, first compound 10 µM
[12] = second compound 0.316 µM, first compound 0.0316 µM
[13] = second compound 0.316 µM, first compound 0.1 µM
[14] = second compound 0.316 µM, first compound 0.316 µM
[15] = second compound 0.316 µM, first compound 1 µM
[16] = second compound 0.316 µM, first compound 3.16 µM
[17] = second compound 0.316 µM, first compound 10 µM
[18] = second compound 1 µM, first compound 0.0316 µM
[19] = second compound 1 µM, first compound 0.1 µM
[20] = second compound 1 µM, first compound 0.316 µM
[21] = second compound 1 µM, first compound 1 µM
[22] = second compound 1 µM, first compound 3.16 µM
[23] = second compound 1 µM, first compound 10 µM
[24] = second compound 3.16 µM, first compound 0.0316 µM
[25] = second compound 3.16 µM, first compound 0.1 µM
[26] = second compound 3.16 µM, first compound 0.316 µM
[27] = second compound 3.16 µM, first compound 1 µM
[28] = second compound 3.16 µM, first compound 3.16 µM
[29] = second compound 3.16 µM, first compound 10 µM
[30] = second compound 10 µM, first compound 0.0316 µM
[31] = second compound 10 µM, first compound 0.1 µM
[32] = second compound 10 µM, first compound 0.316 µM
[33] = second compound 10 µM, first compound 1 µM
[34] = second compound 10 µM, first compound 3.16 µM
[35] = second compound 10 µM, first compound 10 µM
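Note: spheroids exposed to agents for seven days before luminescence viability read.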
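Throughout, for viability, T/C: spheroids also contain HUVEC endothelial cells and human MSC stroma.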

Nc1ccn(C2OC(CO)C(O)C2(F)F)c(=O)n1 (configuration not stated) + Cc1ccccc1N=Nc1ccc(NC(=O)c2ccnn2C)c(C)c1 gave an IC50 [1] of under 31.6 nM, an IC50 [2] of under 31.6 nM and an IC50 [3] of under 31.6 nM. For the same molecule, the IC50 [4] was under 31.6 nM, the IC50 [5] was under 31.6 nM and the viability, T/C [6] was 15.1%. For the same molecule, the viability, T/C [7] was 14.6%, the viability, T/C [8] was 13.6% and the viability, T/C [9] was 12.1%. The viability, T/C [10] was 11.3%, the viability, T/C [11] was 8.74% and the viability, T/C [12] was 15.9%. It also gave a viability, T/C [13] of 13.5%, a viability, T/C [14] of 14.6% and a viability, T/C [15] of 13.1%. The viability, T/C [16] was 11.2%, the viability, T/C [17] was 9.73% and the viability, T/C [18] was 15.7%. For the same molecule, the viability, T/C [19] was 14.8%, the viability, T/C [20] was 15.3% and the viability, T/C [21] was 11.7%. It also gave a viability, T/C [22] of 14.3%, a viability, T/C [23] of 11.4% and a viability, T/C [24] of 14.9%. The viability, T/C [25] was 16.4%, the viability, T/C [26] was 13.1% and the viability, T/C [27] was 12.7%. It also gave a viability, T/C [28] of 13%, a viability, T/C [29] of 10.1% and a viability, T/C [30] of 17.9%. The viability, T/C [31] was 17.4%, the viability, T/C [32] was 16.7% and the viability, T/C [33] was 14.1%. It also gave a viability, T/C [34] of 13.4% and a viability, T/C [35] of 12.2%.

Work on NS(=O)(=O)OCC1CC(n2ccc3c(NC4CCc5ccccc54)ncnc32)CC1O (configuration not stated) + Cc1cncc(-c2nc(NCCc3c[nH]c4ccccc34)c3ncn(C(C)C)c3n2)c1 yielded an IC50 [1] of 192 nM, an IC50 [2] of 161 nM and an IC50 [3] of 142 nM. It also gave an IC50 [4] of under 31.6 nM, an IC50 [5] of under 31.6 nM and a viability, T/C [6] of 101%. The viability, T/C [7] was 69.6%, the viability, T/C [8] was 35.1% and the viability, T/C [9] was 14.4%. For the same molecule, the viability, T/C [10] was 9.84%, the viability, T/C [11] was 4.65% and the viability, T/C [12] was 89.1%. The viability, T/C [13] was 71.6%, the viability, T/C [14] was 19% and the viability, T/C [15] was 12.2%. It also gave a viability, T/C [16] of 6.13%, a viability, T/C [17] of 4.07% and a viability, T/C [18] of 86.2%. For the same molecule, the viability, T/C [19] was 63.3%, the viability, T/C [20] was 19.2% and the viability, T/C [21] was 12.1%. For the same molecule, the viability, T/C [22] was 6.14%, the viability, T/C [23] was 4.69% and the viability, T/C [24] was 28.4%. It also gave a viability, T/C [25] of 26.2%, a viability, T/C [26] of 18.7% and a viability, T/C [27] of 7.99%. For the same molecule, the viability, T/C [28] was 3.97%, the viability, T/C [29] was 3.43% and the viability, T/C [30] was 2.2%. For the same molecule, the viability, T/C [31] was 1.97%, the viability, T/C [32] was 1.34% and the viability, T/C [33] was 0.88%. The viability, T/C [34] was 1.03% and the viability, T/C [35] was 0.56%.

O=C(c1cc(Cc2n[nH]c(=O)c3ccccc23)ccc1F)N1CCN(C(=O)C2CC2)CC1 was tested, and the viability, T/C (compound 0.0316 µM) was 99.3% and 78.6% and 91.4%, the viability, T/C (compound 0.1 µM) was 96.3% and 102% and 76.1% and the viability, T/C (compound 0.316 µM) was 102% and 59% and 78.5%. The viability, T/C (compound 1 µM) was 92.2% and 95.7% and 68.9%, the viability, T/C (compound 3.16 µM) was 92.4% and 52.9% and 67.8% and the viability, T/C (compound 10 µM) was 64.2% and 30% and 36.2%. For the same molecule, the IC50 (curve of compound) was > 10000 nM and 3670 nM and 5620 nM.
